# Reference: patent US20240156723A1, “DEPOT COMPOSITIONS FOR VESICULAR MONOAMINE TRANSPORTER 2 (VMAT2) INHBITORS” (Foresee Pharmaceuticals Co., Ltd., priority 2022, published 2024)
# What was measured:
# [1] = cited from earlier work
# [2] = particle size distribution by laser diffraction (Mastersizer 3000); assay type: physicochemical; settings: re-dispersed in 0.2% Tween 20 deionized water
# Method: Briefly, 10 mg/mL (+)-TBZ or (±)-d6-TBZ recrystallized crystal was re-dispersed in 0.2% Tween 20 deionized water with a rigorous vortex. The microscopy was conducted using the optical microscope Leica DMi8, with 100-fold magnification. The PSD was measured using laser diffraction method, with Mastersizer 3000 (Malvern, UK). Before particle sizing, the 10 mg/mL (+)-TBZ crystal was re-dispersed in 0.2% Tween 20 deionized water and sonicated for ˜10 sec.
# Briefly, 10 mg/mL (+)-TBZ recrystallized crystal was re-dispersed in 0.2% Tween 20 deionized water with a rigorous vortex. The microscopy was conducted using the optical microscope Leica DMi8, with 100-fold magnification. The PSD was measured using laser diffraction method, with Mastersizer 3000 (Malvern, UK). Before particle sizing, the 10 mg/mL (+)-TBZ crystal was re-dispersed in 0.2% Tween 20 deionized water and sonicated for ˜10 sec.
# Four grams of raw (+)-TBZ crystals were jet milled in a 20 mm milling chamber at room temperature (Micromacinazione, Switzerland). Briefly, the jet mill was connected to high pressure nitrogen for providing the pneumatic forces. The grinding pressure and feeding pressure are set on 2.5 bar and 5 bar, respectively. The feeding rate of raw (+)-TBZ crystal was 1.6 g/m in. The fine (+)-TBZ powder was collected by the cyclone and recovered in a vial. The yield was ˜80%. The PSD was characterized using laser diffraction method, with Mastersizer 3000 (Malvern, UK). Before particle sizing, the 10 mg/mL (+)-TBZ crystal was re-dispersed in 0.2% Tween 20 deionized water and sonicated for ˜10 sec. […]
# Four grams of raw cholesterol crystals (Nippon fine chemical, Japan) was jet milled in a 20 mm milling chamber at room temperature (Micromacinazione, Switzerland). The jet mill was connected to high pressure nitrogen for providing the pneumatic forces. The grinding pressure and feeding pressure are set on 2.5 bar and 5 bar, respectively. The feeding rate of raw cholesterol crystal was 1.6 g/m in. The fine CSTR powder was collected by the cyclone and recovered in a vial. The yield was ˜80%. The PSD was characterized using laser diffraction method, with Mastersizer 3000 (Malvern, UK). Before particle sizing, the 10 mg/mL CSTR crystal was re-dispersed in 0.2% Tween 20 deionized water and sonicated for ˜10 sec.
# The spray drying was conducted with Mini Spray Dryer B-290, (Buchi, Switzerland). First, 10 grams of raw cholesterol crystal was dissolved in 300 mL isopropanol (IPA) with 35-40° C. heating to obtain a clear solution. The spray drying was conducted at a flow rate of 12.5 ml/min and completed in 2 hours. The fine CSTR particles were collected by the cyclone and recovered in a vial. The yield was about 80%. […] Briefly, 10 mg/mL SPD CSTR was re-dispersed in 0.2% Tween 20 deionized water with a rigorous vortex. The microscopy was conducted using the optical microscope Leica DMi8, with 100-fold magnification. The PSD was characterized using laser diffraction method, with Mastersizer 3000 (Malvern, UK) and the results are shown in Table 12. Before particle sizing, the 10 mg/mL SPD CSTR was re-dispersed in 0.2% Tween 20 deionized water and sonicated for ˜10 sec. […]
# 4 grams of raw (+)-α-DHTBZ crystals (Wuxi Pharma, China) were jet milled in a 20 mm milling chamber at room temperature (Micromacinazione, Switzerland). Briefly, the jet mill was connected to high pressure nitrogen for providing pneumatic forces, with grinding pressure and feeding pressure set at 4 and 5 bars, respectively. The feeding rate of raw (+)-α-DHTBZ crystals was 1.6 g/m in. Fine milled (+)-α-DHTBZ crystals were collected by the cyclone and recovered in a vial. The yield was ˜80%. The PSD of jet-milled (+)-α-DHTBZ was characterized using laser diffraction method, with Mastersizer 3000 (Malvern, UK). Before particle sizing, the 10 mg jet milled (+)-α-DHTBZ was re-dispersed in 1 mL of 0.2% Tween-20 deionized water and sonicated for ˜10 sec.
# [3] = solubility in heptane; assay type: physicochemical; settings: room temperature
# [4] = biological target: dopamine D2 (Homo sapiens, UniProt P14416); settings: dopamine D2 receptor; read-out: off-target binding affinity to dopamine D2; cited from earlier work
# [5] = biological target: serotonin 5-HT7 receptors (Homo sapiens, UniProt P34969); settings: serotonin 5-HT7 receptor; read-out: off-target binding affinity to serotonin 5-HT7; cited from earlier work
# [6] = listed as 3 g rex (+)-TBZ-1 iii
# Sequence of dopamine D2 (P14416 whole entry): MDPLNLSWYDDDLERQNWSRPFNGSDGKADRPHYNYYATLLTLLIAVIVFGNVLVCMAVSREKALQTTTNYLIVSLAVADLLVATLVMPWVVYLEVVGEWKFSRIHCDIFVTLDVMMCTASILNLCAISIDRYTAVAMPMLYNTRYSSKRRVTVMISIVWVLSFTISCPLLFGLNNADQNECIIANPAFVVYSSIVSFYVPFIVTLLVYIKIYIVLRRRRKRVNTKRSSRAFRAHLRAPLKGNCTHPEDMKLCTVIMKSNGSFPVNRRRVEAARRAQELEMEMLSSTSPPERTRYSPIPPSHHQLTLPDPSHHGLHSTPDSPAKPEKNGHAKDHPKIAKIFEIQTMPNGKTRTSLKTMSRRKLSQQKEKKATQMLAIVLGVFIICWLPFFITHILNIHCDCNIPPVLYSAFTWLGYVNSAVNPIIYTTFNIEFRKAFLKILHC
# Sequence of serotonin 5-HT7 receptors (P34969 whole entry): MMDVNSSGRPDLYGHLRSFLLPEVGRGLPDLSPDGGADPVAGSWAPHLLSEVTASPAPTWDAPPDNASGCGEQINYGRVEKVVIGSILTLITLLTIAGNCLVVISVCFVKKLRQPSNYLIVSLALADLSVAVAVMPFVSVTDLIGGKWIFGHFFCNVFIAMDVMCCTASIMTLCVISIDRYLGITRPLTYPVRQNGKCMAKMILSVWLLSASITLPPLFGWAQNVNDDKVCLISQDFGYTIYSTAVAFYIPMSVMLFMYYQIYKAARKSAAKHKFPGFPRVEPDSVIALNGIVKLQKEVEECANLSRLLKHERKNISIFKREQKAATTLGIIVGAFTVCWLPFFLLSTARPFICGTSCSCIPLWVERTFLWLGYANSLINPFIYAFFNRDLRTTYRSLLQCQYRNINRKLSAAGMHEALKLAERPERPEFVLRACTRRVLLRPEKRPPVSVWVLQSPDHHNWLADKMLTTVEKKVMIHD
compound,measurement,setting,value
"COc1cc2c(cc1OC)C1CC(=O)C(CC(C)C)CN1CC2 (racemic) [TBZ, 1,3,4,6,7,11b-hexahydro-9,10-dimethoxy-3-(2-methoxylrpopryl)-2H-benzo(a)quinoline-2-one, reference compound]",oral bioavailability,[1],17%
same,D10 (μm),[2],4.2 μm
same,D50 (μm),[2],9.2 μm
same,D90 (μm),[2],20.1 μm
CC(C)CCC[C@@H](C)[C@H]1CC[C@H]2[C@@H]3CC=C4C[C@@H](O)CC[C@]4(C)[C@H]3CC[C@]12C [cholesterol],solubility in heptane,[3],> 10 % by weight
same,D50 (μm),[2],27.3 μm
same,D10 (μm),[2]; listed as Jet milled CSTR,0.3 μm
same,D50 (μm),[2]; listed as Jet milled CSTR,4.6 μm
same,D90 (μm),[2]; listed as Jet milled CSTR,12 μm
same,D10 (μm),[2]; listed as Raw CSTR,14.1 μm
same,D50 (μm),[2]; listed as Raw CSTR,27.3 μm
same,D90 (μm),[2]; listed as Raw CSTR,48 μm
same,D10 (μm),[2]; listed as Spray dried CSTR,0.2 μm
same,D50 (μm),[2]; listed as Spray dried CSTR,2.0 μm
same,D90 (μm),[2]; listed as Spray dried CSTR,5.0 μm
"(RR, SS)-1,3,4,6,7,11b-hexahydro-9, 10-di(methoxy-d3)-3-(2-methylpropyl) 2H-benzo[a]quinolizin-2-one [(±)-d6-TBZ, reference compound]",D10 (μm),[2],12.3 μm
same,D50 (μm),[2],25.6 μm
same,D90 (μm),[2],45.4 μm
"COc1cc2c(cc1OC)[C@H]1C[C@@H](O)[C@H](CC(C)C)CN1CC2 [(−)-(α)-DHTBZ, [−]-α-dihydrotetrabenazine]",Ki,[4],180 nM
same,Ki,[5],71 nM
[−]-β-dihydrotetrabenazine [(−)-(β)-DHTBZ],Ki,[4],53 nM
same,Ki,[5],5.9 nM
"COc1cc2c(cc1OC)C1CC(O)C(CC(C)C)CN1CC2 (single isomer, unassigned; (+)) [(+)-(α)-DHTBZ, [+]-α-dihydrotetrabenazine]",D10 (μm),[2],5 μm
same,D50 (μm),[2],13 μm
same,D90 (μm),[2],40 μm
"COc1cc2c(cc1OC)[C@H]1C[C@@H](OC(=O)[C@@H](N)C(C)C)[C@H](CC(C)C)CN1CC2 [VBZ, L-Valine, (2R,3R,11bR)-1,3,4,6,7,11b-hexahydro-9,10-dimethoxy-3-(2-methylpropyI)-2H-benzo[a]quinolizin-2-yl ester]",oral bioavailability,[1],~50%
"COc1cc2c(cc1OC)[C@H]1CC(=O)[C@H](CC(C)C)CN1CC2 [(+)-TBZ, (3R,11bR)-tetrabenazine]",solubility in heptane,[3],< 0.4 % by weight
same,D10 (μm),[2]; listed as 3 g rex (+)-TBZ-1 i,17.3 μm
same,D50 (μm),[2]; listed as 3 g rex (+)-TBZ-1 i,38.5 μm
same,D90 (μm),[2]; listed as 3 g rex (+)-TBZ-1 i,75.0 μm
same,D10 (μm),[2]; listed as 3 g rex (+)-TBZ-1 ii,22.0 μm
same,D50 (μm),[2]; listed as 3 g rex (+)-TBZ-1 ii,45.9 μm
same,D90 (μm),[2]; listed as 3 g rex (+)-TBZ-1 ii,85.7 μm
same,D10 (μm),[2]; [6],16.6 μm
same,D50 (μm),[2]; [6],33.7 μm
same,D90 (μm),[2]; [6],60.7 μm
same,D10 (μm),[2]; listed as 12 g rex (+)-TBZ i,15.9 μm
same,D50 (μm),[2]; listed as 12 g rex (+)-TBZ i,34.9 μm
same,D90 (μm),[2]; listed as 12 g rex (+)-TBZ i,65.8 μm
same,D10 (μm),[2]; listed as 12 g rex (+)-TBZ ii,17.7 μm
same,D50 (μm),[2]; listed as 12 g rex (+)-TBZ ii,40.8 μm
same,D90 (μm),[2]; listed as 12 g rex (+)-TBZ ii,80.4 μm
same,D10 (μm),[2]; listed as 12 g rex (+)-TBZ iii,16.7 μm
same,D50 (μm),[2]; listed as 12 g rex (+)-TBZ iii,38 μm
same,D90 (μm),[2]; listed as 12 g rex (+)-TBZ iii,76 μm
same,D10 (μm),[2]; listed as Jet milled (+)-TBZ,2.5 μm
same,D50 (μm),[2]; listed as Jet milled (+)-TBZ,5.2 μm
same,D90 (μm),[2]; listed as Jet milled (+)-TBZ,11.8 μm
same,D10 (μm),[2]; listed as Raw (+)-TBZ,14.3 μm
same,D50 (μm),[2]; listed as Raw (+)-TBZ,66.5 μm
same,D90 (μm),[2]; listed as Raw (+)-TBZ,184 μm
